Data published in paper PMC8175240, “Integrase-derived peptides together with CD24-targeted lentiviral particles inhibit the growth of CD24 expressing cancer cells” (Oncogene, 2021).
Values after ≈ are worked out from the molar mass of the structure shown. Residues, ends and D or L forms follow the SMILES beside them.

Columns and labels:
[1] = Solubility of IN-derived peptides in human plasma; format: physicochemical; conditions: LC-MS
Description: (§1) Analytic HPLC-MS was performed using an Agilent 1260 series Liquid Chromatography/Mass Selective Detector (MSD) equipped with an electrospray interface and a UV diode array detector. Analyses were performed on an ACE C8, 50 × 3.0 mm, 3 µm column, with an isocratic 0.1% formic acid/ACN eluent, at a rate of 1 ml/min over a period of 5 min. UV absorption was measured at 280 nm, 220 nm, and 215–395 nm. MS analysis was performed with ESI (electron spray ionization) with a positive ionization method.
(§2) Four reaction systems were prepared; INS and INR2 in human plasma, INS and INR2 in rat plasma (Supplementary Table 2). Freshly prepared 10 mg/ml stock solution of the peptides was injected into plasma or PBS solution (1:1). The mixture was diluted with methanol to precipitate the plasma proteins. The samples were filtered through PTFE 0.45 µm filters and run in LC-MS. Samples were taken at the following times: 0, 15, 30, 60, 120, 240, and 480 min and after 24 h.
(§3) Plasma solubility was determined at 0 min and was verified at 60 min (if no degradation was observed).

[2] = Stability test in human plasma; format: in vitro ADME; conditions: for Analyte Remaining % / Concentration calculated from LC-MS data: human plasma, 10 mg/ml stock into plasma 1:1, LC-MS; for Concentration calculated from LC-MS data: methanol precipitation, 0.45 µm filtration; for Stability: rat and human plasma
Description: as §1, §2

[3] = Solubility of IN-derived peptides in PBS; format: physicochemical; conditions: for Solubility: at 0 min, verified at 60 min, LC-MS
Description: as §1, §2, §3

[4] = Stability test in rat plasma; format: in vitro ADME; conditions: for Analyte Remaining %: 10 mg/ml stock into plasma 1:1, LC-MS; for Concentration calculated from LC-MS data: 10 mg/ml stock into plasma 1:1, methanol precipitation, 0.45 µm filtration
Description: as §1, §2

[5] = Solubility of IN-derived peptides in rat plasma; format: physicochemical; conditions: LC-MS
Description: as §1, §2, §3

[6] = from 5 mg/mL sample (10 mg/ml stock into plasma 1:1), at 0 min, verified at 60 min, methanol precipitation, PTFE 0.45 µm filtration

## CC[C@H](C)[C@H](NC(=O)[C@H](Cc1ccccc1)NC(=O)[C@@H](NC(=O)[C@H](C)NC(=O)[C@H](CCSC)NC(=O)[C@H](CCC(N)=O)NC(=O)[C@@H](NC(=O)[C@H](C)NC(=O)[C@@H](NC(=O)[C@@H](N)Cc1c[nH]c2ccccc12)[C@@H](C)O)C(C)C)C(C)C)C(=O)N[C@@H](Cc1c[nH]cn1)C(=O)N[C@@H](CC(N)=O)C(=O)N[C@@H](Cc1ccccc1)C(=O)N[C@@H](CCCCN)C(=O)N[C@@H](CCCNC(=N)N)C(=O)N[C@@H](CCCCN)C(=O)O [INS] (H-WTAVQMAVFIHNFKRK-OH)
[1]; % of 5 mg/mL sample
  Solubility: 62%
[1]; [6]
  Solubility: 3.1 mg/mL (≈ 1570 µM)
[2]; 0 h
  Analyte Remaining %: 65.7%
  Concentration calculated from LC-MS data: 3290 µg/mL
[2]; 0.25 h
  Analyte Remaining %: 60.9%
  Concentration calculated from LC-MS data: 3040 µg/mL
[2]; 0.5 h
  Analyte Remaining %: 71.1%
  Concentration calculated from LC-MS data: 3590 µg/mL
[2]; 1 h
  Analyte Remaining %: 58.4%
  Concentration calculated from LC-MS data: 2920 µg/mL
[2]; 2 h
  Analyte Remaining %: 62.7%
  Concentration calculated from LC-MS data: 3130 µg/mL
[2]; 4 h
  Analyte Remaining %: 62.2%
  Concentration calculated from LC-MS data: 3110 µg/mL
[2]; 8 h
  Analyte Remaining %: 44.2%
  Concentration calculated from LC-MS data: 2210 µg/mL
[2]; 24 h
  Analyte Remaining %: 23.8%
  Concentration calculated from LC-MS data: 1190 µg/mL
[2]; after 8 h
  Stability: 40%
[2]; after 24 h
  Stability: ~ 25%
[3]; % of 5 mg/mL sample
  Solubility: 89.2%
[3]; from 5 mg/mL sample (10 mg/ml stock into PBS 1:1), methanol dilution, PTFE 0.45 µm filtration
  Solubility: 4.46 mg/mL (≈ 2260 µM)
[3]; rat and human plasma
  Solubility (in words): highly soluble
[4]; 0 h
  Analyte Remaining %: 80.3%
  Concentration calculated from LC-MS data: 4010 µg/mL
[4]; 0.25 h
  Analyte Remaining %: 68.2%
  Concentration calculated from LC-MS data: 3410 µg/mL
[4]; 0.5 h
  Analyte Remaining %: 65.3%
  Concentration calculated from LC-MS data: 3260 µg/mL
[4]; 1 h
  Analyte Remaining %: 58.9%
  Concentration calculated from LC-MS data: 2940 µg/mL
[4]; 2 h
  Analyte Remaining %: 50.5%
  Concentration calculated from LC-MS data: 2530 µg/mL
[4]; 4 h
  Analyte Remaining %: 38.6%
  Concentration calculated from LC-MS data: 1930 µg/mL
[4]; 8 h
  Analyte Remaining %: 36.1%
  Concentration calculated from LC-MS data: 1800 µg/mL
[4]; 24 h
  Analyte Remaining %: 14.8%
  Concentration calculated from LC-MS data: 740 µg/mL
[5]; % of 5 mg/mL sample
  Solubility: 80.2%
[5]; [6]
  Solubility: 4.01 mg/mL (≈ 2030 µM)
